In PubChem BioAssay (NCI):
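Five compound concentrations were applied to cells in 96-well plates for 48 hours; endpoints were derived by simple linear interpolation of the resulting dose-response curve. TGI denotes the concentration required for complete inhibition of growth.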

Tests used:
Experiment in all cases: inhibition of tumour cell growth, NCI panel, 48 h
786-0 renal = tested on: 786-0 renal
DU-145 prostate = tested on: DU-145 prostate
HCC-2998 colon = tested on: HCC-2998 colon
HCT-15 colon = tested on: HCT-15 colon
HOP-62 NSCLC = tested on: HOP-62 NSCLC
K-562 leukemia = tested on: K-562 leukemia
MDA-MB-231 breast = tested on: MDA-MB-231 breast
OVCAR-4 ovarian = tested on: OVCAR-4 ovarian
TK-10 renal = tested on: TK-10 renal
UO-31 renal = tested on: UO-31 renal

Compound	TGI (786-0 renal) [µM]	TGI (DU-145 prostate) [µM]	TGI (HCC-2998 colon) [µM]	TGI (HCT-15 colon) [µM]	TGI (HOP-62 NSCLC) [µM]	TGI (K-562 leukemia) [µM]	TGI (MDA-MB-231 breast) [µM]	TGI (OVCAR-4 ovarian) [µM]	TGI (TK-10 renal) [µM]	TGI (UO-31 renal) [µM]
CN(C)c1ccc(S(=O)Nc2ccccc2)cc1 (stereo unspecified)	> 100	> 100	> 100	> 100	> 100	> 100	> 100	> 100	> 100	> 100
CCN(CCCN(CC)C(=O)Nc1c(C)cccc1C)C(=O)Nc1c(C)cccc1C	> 100	> 100	> 100	> 100	> 100	> 100	> 100	> 100	> 100	> 100
COc1ccc(NC(=O)CC(=O)N2N=C(N3c4ccccc4Sc4ccccc43)CC2c2ccccc2)cc1 (stereo unspecified)	> 100	> 100	> 100	> 100	> 100	> 100	> 100	> 100	> 100	> 100
COc1cccc(CCCNC(=O)Cc2cc(OC)c(OC)cc2CO)c1	> 100	> 100	> 100	> 100	> 100	> 100	> 100	> 100	> 100	> 100
O=[N+]([O-])c1ccc(Oc2c(Cl)cc(S(=O)(=O)/N=C(\NO)Nc3ccc(Cl)cc3)cc2Cl)cc1	23.5	29.3	13.1	24.5	32.7	35.9	25.3	17.3	23.2	19.2
CC1(C)C2CCC1(C)[C@H](n1c(=O)n([C@@H]3CC4CCC3(C)C4(C)C)c(=O)n([C@@H]3CC4CCC3(C)C4(C)C)c1=O)C2	> 100	> 100	57.5	> 100	> 100	> 100	> 100	> 100	> 100	> 100
CCOC(=O)c1c(C)nc2c3ccccc3c(C#N)c(C)n12	–	> 100	> 100	> 100	70.7	> 100	46.5	> 100	> 100	> 100
Cc1ccc(C(=C2Sc3ccccc3S2)C(=C2Sc3ccccc3S2)c2ccc(C)s2)s1	> 100	> 100	> 100	> 100	> 100	> 100	> 100	> 100	> 100	> 100
c1c[nH]c(-c2ccc(-c3ccc[nH]3)c3nsnc23)c1	> 67.6	98.3	> 100	> 76.8	> 80.1	> 49.1	> 84.8	> 16.5	> 100	> 74.7
O=c1[nH]c(=O)n(C2OC(CO)C(O)C2O)c2nc(-c3ccc(-c4ccccc4)cc3)cnc12 (stereo unspecified)	> 100	> 100	> 100	> 100	> 100	> 100	> 100	> 100	> 100	> 100
CSC(=S)N/N=C(\C)c1ccc(S(=O)(=O)N(C)c2ccccc2)cc1	> 100	> 100	> 100	> 100	> 100	> 100	> 100	> 100	> 100	> 100
Cc1cc2c3c(nc4ccccc42)C(=O)c2ccccc2-c3n1	> 100	> 100	53.9	16.8	23.5	15.1	78.1	> 100	> 100	> 100
COC(=O)C1CCC(=O)N1C(c1ccc(OC)cc1)c1ccc2c(c1)OCO2 (stereo unspecified)	> 100	> 100	> 100	> 100	> 100	> 100	> 100	> 100	> 100	> 100
Cc1cn(C2CC(O)C(CO)O2)c(=O)[nH]c1=O (stereo unspecified)	> 5000	> 5000	> 5000	> 5000	4630	> 5000	> 5000	> 4640	> 5000	> 5000
Oc1ccc([I+]c2ccccc2)cc1O	> 100	> 100	64.2	> 100	> 100	54.3	> 100	> 100	> 100	> 100
COc1cccc2c(=O)oc(-c3ccc(C(C)(C)C)cc3)nc12	> 100	> 100	33.5	> 100	> 100	> 100	> 100	> 100	> 100	> 100
CCOC(=O)c1cn2c(nc1=O)N[C@H]1CCCC[C@@H]12	> 100	> 100	> 100	> 100	–	> 100	> 100	> 100	> 100	> 100
Cc1ccc2c(c1)C(=O)C1(Cc3ccccc3C1=O)C2 (stereo unspecified)	> 100	> 100	> 100	> 100	> 100	> 100	> 100	> 100	> 100	39
CCOC(=O)c1nc2c(nc1C(=O)OCC)C(=O)c1ccccc1C2=O	6.33	2.48	2.97	> 34.4	3.78	4.46	8.41	1.95	8.83	1.18
CS(=O)(=O)OCC(CCl)(CCl)CCl	–	> 100	> 100	> 100	–	> 100	> 100	> 100	> 100	> 100
CC1=NN(c2cccc(Cl)c2)C2(C1=C/C=C/c1ccccc1)C(Cl)C(=O)N2c1nc2ccccc2s1 (stereo unspecified)	> 55	> 38.2	86.8	> 82.1	> 100	31	58.3	> 100	> 100	> 61.2
